Measured values taken from EP4772177A1, “MUSCLE ATROPHY INHIBITOR” (National University Corporation Kobe University, priority 2023, dated 2025).

Key:
[1] = system: muscle atrophy model mice (immobilized mice); assay: Effects of hydroxylated fatty acid on muscle atrophy model mice (hind limbs immobilized with plastic casts); type: in vivo, C57BL/6J mice; details: 1% in diet for 20 days (immobilization for the latter 10 days); for loss of soleus muscle (muscle weight per body weight): Fig. 2, n = 6; for loss of gastrocnemius muscle (gastrocnemius muscle weight per body weight): Fig. 3, n = 6; for loss of soleus muscle cross-sectional area: HE staining, 400 fibers pooled from 2 mice, Fig. 4
From the text: C57BL/6J mice (male, 10 weeks old) were fed a normal diet (CE-2, CLEA Japan, Inc.), a 1% linoleic acid-containing diet (LA), or a 1% 10-hydroxy-cis-12-octadecenoic acid-containing diet (HYA) (LA manufactured by Sigma-Aldrich and HYA manufactured by Noster Inc. were used) each for 10 days. Then, under general anesthesia, both hind limbs of the mice were immobilized with plastic casts to create immobilized mice. After 10 days of immobilization (still receiving the normal diet or each mixed diet), the mice were sacrificed and weighed. Both soleus muscles were then collected and weighed. The comparison results of muscle weight per body weight are shown in Fig. 2 (n = 6, *P < 0.05, **P < 0.01, 2-way ANOVA with Bonferroni's post hoc test). Furthermore, under the same conditions, both gastrocnemius muscles were collected and weighed. The comparison results of gastrocnemius muscle weight per body weight are shown in Fig. 3 (n = 6, *P < 0.05, **P < 0.01, 2-way ANOVA with Bonferroni's post hoc test).
(§1) In addition, the formalin-soaked soleus muscles were cut in the cross section at its largest diameter, and sections were prepared. After HE staining, the cross-sectional area of the muscle fibers was measured. The comparison results of soleus muscle cross-sectional area are shown in Fig. 4 (the area of 400 fibers pooled from 2 mice was measured and averaged for each condition, **P < 0.01, 2-way ANOVA with Bonferroni's post hoc test).

[2] = system: muscle atrophy model mice (high-fat diet administered mice); assay: Effects of hydroxylated fatty acid on muscle atrophy model mice (high-fat diet administration); type: in vivo, C57BL/6J mice; details: 1% added to high-fat diet for 14 days, compared to administration of a high-fat diet alone; for soleus muscle weight (per body weight): Fig. 7, n = 12; for gastrocnemius muscle weight (per body weight): Fig. 8, n = 12; for tibialis anterior muscle cross-sectional area: HE staining, 400 fibers pooled from 2 mice, Fig. 9(B)
Method: C57BL/6J mice (male, 10 weeks old) were fed a normal diet (CE-2, CLEA Japan, Inc.), a high-fat diet (HFD32, CLEA Japan, Inc.), a 1% HYA-added high-fat diet, or a 1% LA (linoleic acid)-added high-fat diet (HYA manufactured by Noster Inc., LA manufactured by Sigma-Aldrich were used) each for 14 days to create a muscle atrophy model mouse by high-fat diet administration, and the effects by the administration of hydroxylated fatty acid were evaluated.
C57BL/6J mice (male, 10 weeks old) were fed a normal diet (CE-2, CLEA Japan, Inc.), a high-fat diet (HFD32, CLEA Japan, Inc.), a 1% HYA-added high-fat diet, or a 1% LA (linoleic acid)-added high-fat diet each for 14 days. After feeding, the mice were sacrificed and weighed. Both soleus muscles were collected and weighed. The comparison results of soleus muscle weight per body weight are shown in Fig. 7 (n = 12, **P < 0.01, 2-way ANOVA with Bonferroni's post hoc test). Furthermore, under the same conditions, both gastrocnemius muscles were collected and weighed. The comparison results of gastrocnemius muscle weight per body weight are shown in Fig. 8 (n = 12, **P < 0.01, 2-way ANOVA with Bonferroni's post hoc test).
as §1, with “formalin-soaked tibialis anterior muscle was” for “formalin-soaked soleus muscles were”, “HE staining (Fig. 9(A)),” for “HE staining,”, “of tibialis anterior” for “of soleus”, “Fig. 9(B)” for “Fig. 4”

[3] = compared to administration of a normal diet
[4] = compared to administration of linoleic acid

Structure (SMILES)	loss of soleus muscle (muscle weight per body weight) [1, 3]	loss of gastrocnemius muscle (gastrocnemius muscle weight per body weight) [1, 3]	loss of soleus muscle cross-sectional area [1, 3]	loss of gastrocnemius muscle (gastrocnemius muscle weight per body weight) [1, 4]	loss of soleus muscle cross-sectional area [1, 4]	soleus muscle weight (per body weight) [2]	gastrocnemius muscle weight (per body weight) [2]	tibialis anterior muscle cross-sectional area [2]
CCCCC/C=C\CC(O)CCCCCCCCC(=O)O (stereo not drawn) [HYA, 10-hydroxy-cis-12-octadecenoic acid]	significantly inhibited	significantly inhibited	significantly inhibited	significantly inhibited	significantly inhibited	significantly increased	significantly increased	significantly increased
CCCCC/C=C\C/C=C\CCCCCCCC(=O)O [linoleic acid, reference compound]	did not significantly inhibit	did not significantly inhibit	did not significantly inhibit	–	–	a tendency toward an increase	a tendency toward an increase	a tendency toward an increase
